Test results as given in patent US20030195152A1, “Polymeric conjugates of antitumor agents” (priority 2000, published 2003).

System: human colon carcinoma (HT29)
Assay: Antitumor activity on human colon carcinoma (HT29) transplanted in nude mice
Assay type: in vivo
Details: for TI % (tumor inhibition %): calculated at day 46, HT29 sc in nude mice
Procedure: Campound (A1a) was tested on human colon carcinoma (HT29) transplanted in nude mice, in comparison with the free drug 7-ethyl-10-hydroxycamptothecin (12) by i.v. route. A1a was found non toxic at all tested doses and gave 98% tumor inhibition at the highest tested dose of 20 mg/kg (Table 1).

[1] = dose 10 mg/kg i.v. q4dx6, total dose 60 mg/kg
[2] = dose 20 mg/kg i.v. q4dx6, total dose 120 mg/kg
[3] = dose 30 mg/kg i.v. q4dx6, total dose 180 mg/kg
[4] = dose 40 mg/kg i.v. q4dx6, total dose 240 mg/kg

Row | Compound | Tox (number of mice died for toxicity/total number mice) [1] | TI % (tumor inhibition %) [1] | Tox (number of mice died for toxicity/total number mice) [2] | TI % (tumor inhibition %) [2] | toxicity (all tested doses, i.v., nude mice bearing HT29) | TI % (tumor inhibition %) (dose 20 mg/kg i.v. q4dx6, total dose 120 mg/kg, listed as Ala) | Tox (number of mice died for toxicity/total number mice) [3] | TI % (tumor inhibition %) [3] | Tox (number of mice died for toxicity/total number mice) [4] | TI % (tumor inhibition %) [4]
1 | CCc1c2c(nc3ccc(O)cc13)-c1cc3c(c(=O)n1C2)COC(=O)[C@]3(O)CC [Compound 12, 7-ethyl-10-hydroxycamptothecin, reference compound] | 0/7 | 67% | 3/7 | 97% | – | – | – | – | – | –
2 | Copolymer of N-(2-hydroxypropyl)methacryloylamide, 7-ethyl-10-hydroxy-20-O-[N-methacryloyl-6-aminohexanoyl-(methionyl-sulfoxide)-glycyl-(S-benzyl-cysteinyl)-leucyl-glycyl]camptothecin and N-(2-hydroxypropyl)methacryloylglycinamide [Compound A1a] | 0/7 | 85% | 0/7 | 98% | non toxic | 97% | 0/7 | 97% | 0/7 | 97%
